Laboratory results published in PubChem BioAssay (NCI).
“And” between values parts separate entries of the source, which are not always exact repeats. Identical values can stand only once.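 Where inhibition never reached the appropriate level, the endpoint shown equals the highest concentration tested. Otherwise, values were interpolated linearly from a five-concentration, 48-hour dose response in 96-well plates. Here, GI50 denotes the concentration required for 50% inhibition of growth. TGI: total growth inhibition.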

What was measured:
Test in all cases: DTP human tumour cell line panel, 48 h
MCF7 breast = tested on: MCF7 breast
RXF 393 renal = tested on: RXF 393 renal
A498 renal = tested on: A498 renal
HOP-92 NSCLC = tested on: HOP-92 NSCLC
HT29 colon = tested on: HT29 colon
SF-295 CNS = tested on: SF-295 CNS
CCRF-CEM leukemia = tested on: CCRF-CEM leukemia
MDA-N = tested on: MDA-N
IGROV1 ovarian = tested on: IGROV1 ovarian
NCI-H522 lung = tested on: NCI-H522 lung

Structure (SMILES) | TGI (MCF7 breast) | TGI (RXF 393 renal) | TGI (A498 renal) | TGI (HOP-92 NSCLC) | TGI (HT29 colon) [µM] | TGI (SF-295 CNS) | TGI (CCRF-CEM leukemia) [µM] | TGI (MDA-N) [µM] | TGI (IGROV1 ovarian) | TGI (NCI-H522 lung) | GI50 (MCF7 breast) [µM] | GI50 (RXF 393 renal) [µM] | GI50 (A498 renal) [µM] | GI50 (HOP-92 NSCLC) [µM] | GI50 (HT29 colon) [µM] | GI50 (SF-295 CNS) [µM] | GI50 (CCRF-CEM leukemia) [µM] | GI50 (IGROV1 ovarian) [µM] | GI50 (NCI-H522 lung) [µM]
CN(C)CC1CCC/C(=C\c2ccc(OC(=O)/C=C/c3ccc(Cl)c(Cl)c3)cc2)C1=O (configuration not stated) | 5.79 µM | 4.41 µM | 32.1 µM | 4.27 µM | 4.68 | 26.2 µM | 1.77 | 12.1 | 3.15 µM | 8.28 µM | – | – | – | – | – | – | – | – | –
CN(C)CCNC(=O)c1ccc(Cl)c2cc3ccccc3nc12 | 3.58 µM | 3.08 µM | 1.33 µM | 2.2 µM | 4.9 | 4.33 µM | 4.64 | 2.21 | 11.3 µM | 2.07 µM | – | – | – | – | – | – | – | – | –
Cc1cc(N2CCCC2)c([N+](=O)[O-])cc1[N+](=O)[O-] | > 100 µM | > 100 µM | > 100 µM | > 100 µM | > 100 | > 100 µM | > 100 | > 100 | > 100 µM | > 100 µM | – | – | – | – | – | – | – | – | –
COCC12CCC(OC)C34C5CC6(O)C(OC)CC(OC(C)=O)(C5C6OC(=O)c5ccccc5)C(C(OC)C13)C4N(C)C2 (configuration not stated) | > 100 µM | > 100 µM | > 100 µM | > 100 µM | > 100 | > 100 µM | > 100 | > 100 | > 100 µM | > 100 µM | – | – | – | – | – | – | – | – | –
COc1ccc([C@]23CCN4COC[C@@H]([C@H]42)C2(CC3)OCC(C)(C)CO2)cc1OC | > 100 µM | > 100 µM | > 100 µM | > 100 µM | > 100 | > 100 µM | > 100 | > 100 | > 100 µM | > 100 µM | – | – | – | – | – | – | – | – | –
COc1cc(CCN(C)C)cc(OC)c1OC | > 100 µM | > 100 µM | > 100 µM | > 100 µM | > 100 | > 100 µM | > 100 | > 100 | > 100 µM | > 100 µM | – | – | – | – | – | – | – | – | –
O=C(c1ccc(O)c([N+](=O)[O-])c1)c1ccc(O)c([N+](=O)[O-])c1 | > 100 µM | > 100 µM | > 100 µM | > 100 µM | > 100 | > 100 µM | > 100 | > 100 | > 100 µM | > 100 µM | – | – | – | – | – | – | – | – | –
O=C(C(Cl)=C(N1CCCCC1)N1CCCCC1)C(Cl)Cl | > 100 µM | > 100 µM | > 100 µM | > 100 µM | > 100 | > 100 µM | > 100 | > 100 | > 100 µM | > 100 µM | – | – | – | – | – | – | – | – | –
C=Cc1nc(C#N)c(N)o1 | > 100 µM | > 100 µM | > 100 µM | > 100 µM | > 100 | > 100 µM | > 100 | > 100 | > 100 µM | > 100 µM | – | – | – | – | – | – | – | – | –
COc1ccc2c(c1)c1nn(CCN3CCCCC3)c3ccc4c(=O)n(CCN(C)C)c(=O)n2c4c13 | < 0.0504 µM | < 0.0374 µM | 0.119 µM | 0.901 µM | 0.0963 | < 0.0192 µM | 0.785 | 0.117 | < 0.0174 µM | < 0.0341 µM | – | – | – | – | – | – | – | – | –
COC(=O)C1=CON2C3CC4CC(C3)CC(C4)C12C (configuration not stated) | > 100 µM | > 100 µM | > 100 µM | > 100 µM | > 100 | > 100 µM | > 100 | > 100 | > 100 µM | > 100 µM | – | – | – | – | – | – | – | – | –
CCOC(=O)C(NC(=O)CC)(Nc1ccc(F)c(Cl)c1)C(F)(F)F (configuration not stated) | > 100 µM | > 100 µM | > 100 µM | > 100 µM | > 100 | > 100 µM | > 100 | > 100 | > 100 µM | > 100 µM | – | – | – | – | – | – | – | – | –
COC12C=CC(C=C1C#N)CC2 (configuration not stated) (tested in a mixture with another compound) | > 100 µM | > 100 µM | > 100 µM | > 100 µM | > 100 | > 100 µM | > 100 | > 100 | > 100 µM | > 100 µM | – | – | – | – | – | – | – | – | –
Cc1cc(N(CCC#N)CCC#N)ccc1/C=C1\SC(=S)NC1=O | > 100 µM | 99.8 µM | > 100 µM | > 100 µM | > 100 | > 100 µM | > 100 | > 100 | > 100 µM | > 100 µM | – | – | – | – | – | – | – | – | –
COc1cc(OC2OC(COC(=O)c3cc(O)c(O)c(O)c3)C(O)C(O)C2O)ccc1O (configuration not stated) | > 100 µM | > 100 µM | > 100 µM | > 100 µM | > 100 | > 100 µM | > 100 | > 100 | > 100 µM | > 100 µM | – | – | – | – | – | – | – | – | –
CCN(CC)CCOC(=O)Cc1cccc2c(=O)cc(-c3ccccc3)oc12 | 62.5 µM and > 216 µM | 58.7 µM and > 144 µM | 62.5 µM and > 145 µM | 42.6 µM and 82.5 µM | – | 62.5 µM and > 141 µM | – | 62.5 | 62.5 µM and > 216 µM | 62.5 µM and > 154 µM | 46.9 | 52.6 | 40.2 | 8.02 | 530 | 19.2 | 336 | 82.9 | 72.8
